Data on two compounds can be found in patent publication US20070092587A1, “Extract from plant of japanese parsley family and process for producing the same” (priority 2004, published 2007).

Test [1] addresses T1, human muscle cell-derived aldose reductase (Homo sapiens, UniProt P15121).
T1 construct: purchased Wako Pure Chemical Industries, Ltd
The test is described as follows: Inhibitory action for aldose reductase (change in NADPH absorbance at 340 nm, methylglyoxal substrate). It counts as biochemical. As to the method: Inhibitory action for aldose reductase of the extract from the root portion of Angelica keiskei koidz. was determined in accordance with the following method. As a sample, 20 μL of a 100 mM methylglyoxal solution was added to 10 μL of each of the kinds of ethanol extracts from the root portion of Angelica keiskei koidz. prepared in Example 4, and 10 μL of the water extract from the root portion of Angelica keiskei koidz. prepared in Preparation Example 1 (a solution prepared by dissolving the extract in a 50% aqueous dimethyl sulfoxide solution), 100 μL of 0.2 M phosphate buffer (pH 6.2), 20 μL of 1 mM NADPH (phosphate buffer), and 10 μL of a human muscle cell-derived aldose reductase solution (0.1 U/mL, manufactured by Wako Pure Chemical Industries, Ltd., phosphate buffer). For a period of 180 seconds after 30 seconds passed, the change in absorbance of NADPH at 340 nm was determined. As a negative control, a 50% aqueous dimethyl sulfoxide solution was used in place of the sample. Also, the absorbance was determined using distilled water as a blank solution for each sample in place of the methylglyoxal solution. The determination values were expressed as an average of two experimental values. The inhibitory ratio (%) for aldose reductase was calculated in accordance with the following formula: Inhibitory Ratio (%)=[1−(ΔAs−ΔAsb)/(ΔAc−ΔAcb)]×100, wherein ΔAs and ΔAc show a change in the absorbance of each of the sample solution and the negative control solution per minute; and ΔAsb and ΔAcb show a change in the absorbance of the blank solutions for the sample solution and the negative control solution per minute.
The inhibitory activity for aldose reductase of the extract from the leaf and stem portions of Angelica keiskei koidz. prepared in Example 3 was determined in the same manner as in Example 8.

For test [2], the system named is mature adipocytes (3T3-L1 cells). The test is described as follows: Enhancing action on glucose uptake (2-deoxyglucose uptake) into mature adipocytes. It counts as cell-based. Conditions: isolated compounds at final 3-30 μM; insulin 1 μg/mL positive control; compared to negative control. As to the method: The induction of differentiation into mature adipocytes was carried out by partially modifying the method of Rubin C. S. et al. 3T3-L1 cells were suspended in a 10% fetal bovine serum-containing Dulbecco's modified Eagle's medium containing 200 μM ascorbic acid so as to have a density of 4×10^3 cells/mL, and the suspension was put in each well of a 12-well microtiter plate in an amount of 2 mL per well. The cells were cultured at 37° C. for 7 days in the presence of 5% carbon dioxide gas. On the seventh day, the medium was exchanged with 2 mL of a 10% fetal bovine serum-containing Dulbecco's modified Eagle's medium containing 200 μM ascorbic acid, 0.25 μM dexamethasone, 10 μg/mL insulin and 0.5 mM 3-isobutyl-1-methylxanthine (manufactured by Nacalai Tesque, Inc., 19624-44). After 45 hours, the medium was exchanged with 2 mL of a 10% fetal bovine serum-containing Dulbecco's modified Eagle's medium containing 200 μM ascorbic acid and 5 μg/mL insulin. The medium was exchanged on after 2 days and 4 days, and the cells were cultured for 7 days, to give mature adipocytes.
As the evaluation of enhancing action on glucose uptake, and also as the evaluation of insulin-mimetic action, the amount of 2-deoxyglucose uptake into mature adipocytes stimulated with the sample ([…]) in the adipocytes was determined.
After the termination of the culture, the medium was removed, and the cells were washed twice with a 0.1% (w/v) bovine serum albumin (manufactured by Sigma, A8022)-containing Dulbecco's modified Eagle's medium. Thereafter, 1 mL of the […] ethanol solution at a final concentration of 0.1%, 0.067%, or 0.022%, […] solution at a final concentration of 0.2%, 0.067%, or 0.022%, […] ethanol solution or the dimethyl sulfoxide solution of the extract from the root portion of Angelica keiskei koidz. with the 100% ethanol so as to have a final concentration of 0.067% or 0.022%, each extract being prepared in Example 4, was put to each well. The cells were cultured overnight at 37° C. in the presence of 5% carbon dioxide gas. Here, a group without addition of the sample was set as a negative control. After the overnight culture, the cells were washed twice with a HEPES buffered saline (140 mM NaCl, 5 mM KCl, 2.5 mM MgSO4, 1 mM CaCl2, 20 mM HEPES-Na (pH 7.4)), and 0.9 mL of the […] ethanol solution at a final concentration of 0.1%, 0.067%, or 0.022%, […] solution at a final concentration of 0.2%, 0.067%, or 0.022%, […] ethanol solution or the dimethyl sulfoxide solution of the extract from the root portion of Angelica keiskei koidz. with the 100% ethanol so as to have a final concentration of 0.067% or 0.022%, was added thereto. The cells were cultured at 37° C. for 75 minutes. At the point when 45 minutes passed, there was set in a well without addition of the sample a group with addition of insulin so as to have a final concentration of 1 μg/mL as a positive control. Thereafter, 100 μL of a HEPES buffered saline containing 0.5 μCi/mL 2-deoxy-[1,2-^3H(N)]-glucose (manufactured by PerkinElmer Life Sciences Inc., NET549A) and 1 mM 2-deoxyglucose (manufactured by Nacalai Tesque, Inc., 10722-11) was added thereto, and the cells were further cultured at 37° C. for 10 minutes. […] The radioactivity was determined with a liquid scintillation counter LS6500 (manufactured by Beckmann) using 25 μl of the supernatant with Ultima Gold (manufactured by PerkinElmer Life Sciences Inc., 6013329) as a scintillation cocktail. […]

Turning to `CC(C)=CCc1c(O)ccc(C(=O)/C=C/c2ccc(O)cc2)c1O` [Isobavachalcone, isobavachalcone], the “Inhibitory Ratio (%) of Aldose Reductase” value stood at 30.2% in test [1] (10 μM), 47.4% in test [1] (20 μM) and 60.1% in test [1] (40 μM). Moreover, the “enhancement of 2-deoxy-[1,2-3H(N)]-glucose uptake” value in test [2] is “enhancement of 2-deoxy-[1,2-^3H(N)]-glucose uptake was found”.

For the compound xanthoangelol H, the “Inhibitory Ratio (%) of Aldose Reductase” value in test [1] (2.5 μM) is on record as 40.4%; in test [1] (5 μM), 57.8%; in test [1] (10 μM), 72.2%; in test [1] (20 μM), 80.8%. Further, the “enhancement of 2-deoxy-[1,2-3H(N)]-glucose uptake” value in test [2] was “enhancement of 2-deoxy-[1,2-^3H(N)]-glucose uptake was found”.
